Results from article doi:10.1101/2025.02.11.637513v1 (bioRxiv, 2025).
Non-standard residues stand in square brackets, D forms with d. No end group written: not given here. Phe(4-Cl) = N[C@@H](Cc1ccc(Cl)cc1)C(=O)O; 1Nal = N[C@@H](Cc1cccc2ccccc12)C(=O)O; 2Nal = N[C@@H](Cc1ccc2ccccc2c1)C(=O)O; Tle = CC(C)(C)[C@H](N)C(=O)O; Abu = CC[C@H](N)C(=O)O

Tests used:
Experiment in all cases: tetrapeptide-ACC substrate cleavage kinetics
Format in all cases: biochemical
human caspase-7 = biological target: T1, human caspase-7 (Homo sapiens, UniProt P55210); settings: Ac-P4-P3-P2-Asp-ACC substrate, 0.05-500 μM, 40-400 nM enzyme, 37°C, triplicate
T1 sequence (P55210 24-198 limits assumed): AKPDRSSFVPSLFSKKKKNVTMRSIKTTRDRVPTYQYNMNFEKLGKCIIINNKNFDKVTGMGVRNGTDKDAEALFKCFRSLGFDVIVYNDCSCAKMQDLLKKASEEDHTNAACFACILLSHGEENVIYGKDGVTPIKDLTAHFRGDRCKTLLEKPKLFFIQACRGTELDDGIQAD
T1 sequence (P55210 207-303 limits assumed): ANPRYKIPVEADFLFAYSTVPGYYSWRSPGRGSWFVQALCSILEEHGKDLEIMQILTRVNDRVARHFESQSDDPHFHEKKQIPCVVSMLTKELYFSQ

human caspase-8 = human caspase-8 (Homo sapiens, UniProt Q14790); settings: Ac-P4-P3-P2-Asp-ACC substrate, 0.05-500 μM, 6-42 nM enzyme, 37°C, triplicate
human caspase-4 = biological target: T2, human caspase-4 (Homo sapiens, UniProt P49662); settings: Ac-P4-P3-P2-Asp-ACC substrate, 0.05-500 μM, 35-200 nM enzyme, 37°C, triplicate
T2 sequence (P49662 81-270 limits assumed): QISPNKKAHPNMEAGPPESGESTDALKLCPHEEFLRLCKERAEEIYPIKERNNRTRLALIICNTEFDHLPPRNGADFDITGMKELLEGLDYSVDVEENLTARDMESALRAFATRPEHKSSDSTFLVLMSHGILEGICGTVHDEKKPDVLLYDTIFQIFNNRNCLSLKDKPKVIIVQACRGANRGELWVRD
T2 sequence (P49662 290-377 limits assumed): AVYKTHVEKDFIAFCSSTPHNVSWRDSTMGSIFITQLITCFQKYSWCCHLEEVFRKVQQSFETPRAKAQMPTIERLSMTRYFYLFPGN

human caspase-9 = biological target: T3, human caspase-9 (Homo sapiens, UniProt P55211); settings: Ac-P4-P3-P2-Asp-ACC substrate, 0.05-500 μM, 20-150 nM enzyme, 37°C, triplicate
T3 sequence (P55211 1-315 limits assumed): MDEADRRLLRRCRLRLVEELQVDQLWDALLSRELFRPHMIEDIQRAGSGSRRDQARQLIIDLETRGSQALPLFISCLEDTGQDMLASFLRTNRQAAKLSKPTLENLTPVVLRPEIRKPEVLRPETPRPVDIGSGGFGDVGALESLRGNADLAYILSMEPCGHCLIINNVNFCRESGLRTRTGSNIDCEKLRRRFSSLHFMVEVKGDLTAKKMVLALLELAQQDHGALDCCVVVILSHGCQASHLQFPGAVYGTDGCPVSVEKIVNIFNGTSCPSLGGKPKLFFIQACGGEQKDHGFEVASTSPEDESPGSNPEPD
T3 sequence (P55211 331-416 limits assumed): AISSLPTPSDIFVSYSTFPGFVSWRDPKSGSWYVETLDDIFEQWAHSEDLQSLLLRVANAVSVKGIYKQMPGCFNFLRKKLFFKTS

human caspase-5 = biological target: T4, human caspase-5 (Homo sapiens, UniProt P51878); settings: Ac-P4-P3-P2-Asp-ACC substrate, 0.05-500 μM, 20-250 nM enzyme, 37°C, triplicate
T4 sequence (P51878 137-327 limits assumed): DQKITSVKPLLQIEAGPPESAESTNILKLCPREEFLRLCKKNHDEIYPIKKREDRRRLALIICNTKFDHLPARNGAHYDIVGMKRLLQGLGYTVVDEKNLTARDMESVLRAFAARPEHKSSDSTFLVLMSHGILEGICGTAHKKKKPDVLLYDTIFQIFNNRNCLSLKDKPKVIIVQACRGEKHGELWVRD
T4 sequence (P51878 347-434 limits assumed): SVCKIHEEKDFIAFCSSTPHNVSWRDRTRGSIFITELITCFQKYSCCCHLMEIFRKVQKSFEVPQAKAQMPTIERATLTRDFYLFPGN

human caspase-3 = biological target: T5, human caspase-3 (Homo sapiens, UniProt P42574); settings: Ac-P4-P3-P2-Asp-ACC substrate, 0.05-500 μM, 3-35 nM enzyme, 37°C, triplicate
T5 sequence (P42574 29-175 limits assumed): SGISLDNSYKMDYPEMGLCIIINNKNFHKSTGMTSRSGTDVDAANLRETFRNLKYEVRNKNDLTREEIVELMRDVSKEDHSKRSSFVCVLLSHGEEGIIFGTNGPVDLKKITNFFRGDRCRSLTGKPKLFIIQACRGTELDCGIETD
T5 sequence (P42574 176-277 limits assumed): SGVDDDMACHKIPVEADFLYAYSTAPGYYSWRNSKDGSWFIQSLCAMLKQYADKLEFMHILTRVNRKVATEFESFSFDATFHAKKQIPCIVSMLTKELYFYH

human caspase-1 = biological target: T6, human caspase-1 (Homo sapiens, UniProt P29466); settings: Ac-P4-P3-P2-Asp-ACC substrate, 0.05-500 μM, 2-15 nM enzyme, 37°C, triplicate
T6 sequence (P29466 120-297 limits assumed): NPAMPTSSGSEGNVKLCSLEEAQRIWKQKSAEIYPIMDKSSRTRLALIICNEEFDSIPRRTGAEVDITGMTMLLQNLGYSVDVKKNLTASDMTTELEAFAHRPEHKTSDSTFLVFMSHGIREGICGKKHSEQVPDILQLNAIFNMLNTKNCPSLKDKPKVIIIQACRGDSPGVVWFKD
T6 sequence (P29466 317-404 limits assumed): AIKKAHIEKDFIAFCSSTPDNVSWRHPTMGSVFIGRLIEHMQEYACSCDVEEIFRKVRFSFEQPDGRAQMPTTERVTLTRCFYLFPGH

human caspase-8, sequence (Q14790 217-374 limits assumed): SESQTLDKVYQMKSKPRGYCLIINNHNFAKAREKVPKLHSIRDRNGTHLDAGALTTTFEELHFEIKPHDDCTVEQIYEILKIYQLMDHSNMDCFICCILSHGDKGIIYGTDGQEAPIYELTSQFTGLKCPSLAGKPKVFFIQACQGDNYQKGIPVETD
human caspase-8, sequence (Q14790 385-479 limits assumed): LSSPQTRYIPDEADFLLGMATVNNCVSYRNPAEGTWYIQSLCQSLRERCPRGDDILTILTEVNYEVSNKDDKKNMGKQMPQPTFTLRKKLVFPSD

[1Nal]Q[Abu]D
kcat/KM caspase-7 (human caspase-7): 220 M⁻¹ s⁻¹
kcat/KM caspase-8 (human caspase-8): 4 420 M^-1s^-1
kcat/KM caspase-4 (human caspase-4): 2 190 M^-1s^-1
kcat/KM caspase-9 (human caspase-9): 100 M⁻¹ s⁻¹
kcat/KM caspase-5 (human caspase-5): 4 640 M^-1s^-1
kcat/KM caspase-3 (human caspase-3): 1 660 M^-1s^-1
kcat/KM caspase-1 (human caspase-1): 168 100 M^-1s^-1

Glu(Ochx)-Bip-His(Bzl)-Asp
kcat/KM caspase-7 (human caspase-7): 20 M⁻¹ s⁻¹
kcat/KM caspase-8 (human caspase-8): 110 M⁻¹ s⁻¹
kcat/KM caspase-4 (human caspase-4): < 10 M⁻¹ s⁻¹
kcat/KM caspase-9 (human caspase-9): 40 M⁻¹ s⁻¹
kcat/KM caspase-5 (human caspase-5): < 10 M⁻¹ s⁻¹
kcat/KM caspase-3 (human caspase-3): < 10 M⁻¹ s⁻¹
kcat/KM caspase-1 (human caspase-1): < 10 M⁻¹ s⁻¹

[2Nal]THD
kcat/KM caspase-7 (human caspase-7): 70 M⁻¹ s⁻¹
kcat/KM caspase-8 (human caspase-8): 1 990 M^-1s^-1
kcat/KM caspase-4 (human caspase-4): 2 450 M^-1s^-1
kcat/KM caspase-9 (human caspase-9): 5 660 M^-1s^-1
kcat/KM caspase-5 (human caspase-5): 7 860 M^-1s^-1
kcat/KM caspase-3 (human caspase-3): 830 M⁻¹ s⁻¹
kcat/KM caspase-1 (human caspase-1): 146 200 M^-1s^-1

[Tle][Phe(4-Cl)]HD
kcat/KM caspase-7 (human caspase-7): 160 M⁻¹ s⁻¹
kcat/KM caspase-8 (human caspase-8): 10 600 M^-1s^-1
kcat/KM caspase-4 (human caspase-4): 2 500 M^-1s^-1
kcat/KM caspase-9 (human caspase-9): 9 100 M^-1s^-1
kcat/KM caspase-5 (human caspase-5): 7 360 M^-1s^-1
kcat/KM caspase-3 (human caspase-3): 21 330 M^-1s^-1
kcat/KM caspase-1 (human caspase-1): 13 300 M^-1s^-1

Tyr-Gln-2Aoc-Asp
kcat/KM caspase-7 (human caspase-7): 190 M⁻¹ s⁻¹
kcat/KM caspase-8 (human caspase-8): 4 970 M^-1s^-1
kcat/KM caspase-4 (human caspase-4): 1 100 M^-1s^-1
kcat/KM caspase-9 (human caspase-9): 310 M⁻¹ s⁻¹
kcat/KM caspase-5 (human caspase-5): 2 860 M^-1s^-1
kcat/KM caspase-3 (human caspase-3): 2 580 M^-1s^-1

Trp(Me)-Dab-Pip-Asp
kcat/KM caspase-7 (human caspase-7): 20 M⁻¹ s⁻¹
kcat/KM caspase-8 (human caspase-8): 150 M⁻¹ s⁻¹
kcat/KM caspase-4 (human caspase-4): 4 340 M^-1s^-1
kcat/KM caspase-9 (human caspase-9): 120 M⁻¹ s⁻¹
kcat/KM caspase-5 (human caspase-5): 3 930 M^-1s^-1
kcat/KM caspase-3 (human caspase-3): 740 M⁻¹ s⁻¹
kcat/KM caspase-1 (human caspase-1): 176 200 M^-1s^-1

Tyr-Tyr(2,6Cl2Bzl)-His-Asp
kcat/KM caspase-7 (human caspase-7): 50 M⁻¹ s⁻¹
kcat/KM caspase-8 (human caspase-8): 1 050 M^-1s^-1
kcat/KM caspase-4 (human caspase-4): < 10 M⁻¹ s⁻¹
kcat/KM caspase-9 (human caspase-9): 310 M⁻¹ s⁻¹
kcat/KM caspase-5 (human caspase-5): 1 560 M^-1s^-1
kcat/KM caspase-3 (human caspase-3): 1 240 M^-1s^-1
kcat/KM caspase-1 (human caspase-1): 8 700 M^-1s^-1

Trp-Lys-Gln-Asp
kcat/KM caspase-7 (human caspase-7): < 10 M⁻¹ s⁻¹
kcat/KM caspase-8 (human caspase-8): 30 M⁻¹ s⁻¹
kcat/KM caspase-4 (human caspase-4): 320 M⁻¹ s⁻¹
kcat/KM caspase-9 (human caspase-9): 10 M⁻¹ s⁻¹
kcat/KM caspase-5 (human caspase-5): 160 M⁻¹ s⁻¹
kcat/KM caspase-3 (human caspase-3): < 10 M⁻¹ s⁻¹
kcat/KM caspase-1 (human caspase-1): 41 600 M^-1s^-1

Trp(Me)-Glu-His(Bzl)-Asp
kcat/KM caspase-7 (human caspase-7): 280 M⁻¹ s⁻¹
kcat/KM caspase-8 (human caspase-8): 7 620 M^-1s^-1
kcat/KM caspase-4 (human caspase-4): 15 800 M^-1s^-1
kcat/KM caspase-9 (human caspase-9): 6 670 M^-1s^-1
kcat/KM caspase-5 (human caspase-5): 20 140 M^-1s^-1
kcat/KM caspase-3 (human caspase-3): 6 300 M^-1s^-1
kcat/KM caspase-1 (human caspase-1): 623 800 M^-1s^-1

Val-Gly-His-Asp
kcat/KM caspase-7 (human caspase-7): 90 M⁻¹ s⁻¹
kcat/KM caspase-8 (human caspase-8): 1 110 M^-1s^-1
kcat/KM caspase-4 (human caspase-4): 480 M⁻¹ s⁻¹
kcat/KM caspase-9 (human caspase-9): 3 800 M^-1s^-1
kcat/KM caspase-5 (human caspase-5): 390 M⁻¹ s⁻¹
kcat/KM caspase-3 (human caspase-3): 7 360 M^-1s^-1
kcat/KM caspase-1 (human caspase-1): 2 000 M^-1s^-1

Phe(2Cl)-Glu-Pip-Asp
kcat/KM caspase-7 (human caspase-7): 10 730 M^-1s^-1
kcat/KM caspase-8 (human caspase-8): 11 430 M^-1s^-1
kcat/KM caspase-4 (human caspase-4): 9 760 M^-1s^-1
kcat/KM caspase-9 (human caspase-9): 2 300 M^-1s^-1
kcat/KM caspase-5 (human caspase-5): 1 830 M^-1s^-1
kcat/KM caspase-3 (human caspase-3): 103 000 M^-1s^-1

Phe-Glu-Ala-Asp
kcat/KM caspase-7 (human caspase-7): 180 M⁻¹ s⁻¹
kcat/KM caspase-8 (human caspase-8): 3 890 M^-1s^-1
kcat/KM caspase-4 (human caspase-4): 870 M⁻¹ s⁻¹
kcat/KM caspase-9 (human caspase-9): 530 M⁻¹ s⁻¹
kcat/KM caspase-5 (human caspase-5): 6 720 M^-1s^-1
kcat/KM caspase-3 (human caspase-3): 1 550 M^-1s^-1
kcat/KM caspase-1 (human caspase-1): 57 100 M^-1s^-1

Thr-Trp-His-Asp
kcat/KM caspase-7 (human caspase-7): 710 M⁻¹ s⁻¹
kcat/KM caspase-8 (human caspase-8): 1 100 M^-1s^-1
kcat/KM caspase-4 (human caspase-4): 450 M⁻¹ s⁻¹
kcat/KM caspase-9 (human caspase-9): 4 810 M^-1s^-1
kcat/KM caspase-5 (human caspase-5): 600 M⁻¹ s⁻¹
kcat/KM caspase-3 (human caspase-3): 26 990 M^-1s^-1
kcat/KM caspase-1 (human caspase-1): 4 500 M^-1s^-1

Tyr-Lys-Met-Asp
kcat/KM caspase-7 (human caspase-7): 10 M⁻¹ s⁻¹
kcat/KM caspase-8 (human caspase-8): 210 M⁻¹ s⁻¹
kcat/KM caspase-4 (human caspase-4): 180 M⁻¹ s⁻¹
kcat/KM caspase-9 (human caspase-9): 50 M⁻¹ s⁻¹
kcat/KM caspase-5 (human caspase-5): < 10 M⁻¹ s⁻¹
kcat/KM caspase-3 (human caspase-3): 50 M⁻¹ s⁻¹
kcat/KM caspase-1 (human caspase-1): 9 700 M^-1s^-1

Asp-Glu-Val-Asp
kcat/KM caspase-7 (human caspase-7): 85 000 M^-1s^-1
kcat/KM caspase-8 (human caspase-8): 73 200 M^-1s^-1
kcat/KM caspase-4 (human caspase-4): 260 M⁻¹ s⁻¹
kcat/KM caspase-9 (human caspase-9): 280 M⁻¹ s⁻¹
kcat/KM caspase-5 (human caspase-5): 180 M⁻¹ s⁻¹
kcat/KM caspase-1 (human caspase-1): 280 M⁻¹ s⁻¹

Val-Tyr(2,6Cl2Bzl)-His-Asp
kcat/KM caspase-7 (human caspase-7): 80 M⁻¹ s⁻¹
kcat/KM caspase-8 (human caspase-8): 750 M⁻¹ s⁻¹
kcat/KM caspase-4 (human caspase-4): 100 M⁻¹ s⁻¹
kcat/KM caspase-9 (human caspase-9): 480 M⁻¹ s⁻¹
kcat/KM caspase-3 (human caspase-3): 3 400 M^-1s^-1
kcat/KM caspase-1 (human caspase-1): < 10 M⁻¹ s⁻¹
